According to the supplement of paper PMC6315032:

How the values were obtained:
Experiment in all cases: apparent dissociation constant (pKDapp, Kinobeads competition, Cheng-Prusoff corrected) (-log10 M); higher = tighter binding
Settings in all cases: affinity matrix / lysate: Kinobeads, mixed HEK293/K-562/placenta lysate
AAK1 = AAK1 (UniProt Q2M2I8)
BRSK2 = BRSK2 (UniProt Q8IWQ3)
CDK2 = CDK2 (UniProt P24941)
CDK5 = CDK5 (UniProt Q00535)
CDKL5 = CDKL5 (UniProt O76039)
CIT = CIT (UniProt O14578)
CSNK1D = CSNK1D (UniProt P48730)
DDR1 = DDR1 (UniProt Q08345)
EIF2AK1 = EIF2AK1 (UniProt Q9BQI3)
EPHA1 = EPHA1 (UniProt P21709)
FER = FER (UniProt P16591)
HIPK2 = HIPK2 (UniProt Q9H2X6)
HIPK3 = HIPK3 (UniProt Q9H422)
MAP2K5 = MAP2K5 (UniProt Q13163)
MARK1 = MARK1 (UniProt Q9P0L2)
MARK4 = MARK4 (UniProt Q96L34)
MYLK = MYLK (UniProt Q15746)
PCTK1 = PCTK1 (UniProt Q00536)
PFTK1 = PFTK1 (UniProt O94921)
PIM1 = PIM1 (UniProt P11309)
PKN3 = PKN3 (UniProt Q6P5Z2)
PRKD3 = PRKD3 (UniProt O94806)
PTK2B = PTK2B (UniProt Q14289)
RIPK2 = RIPK2 (UniProt O43353)
SLK = SLK (UniProt Q9H2G2)
SNRK = SNRK (UniProt Q9NRH2)
STK38L = STK38L (UniProt Q9Y2H1)
STK39 = STK39 (UniProt Q9UEW8)
STK4 = STK4 (UniProt Q13043)
SYK = SYK (UniProt P43405)
TESK2 = TESK2 (UniProt Q96S53)
TP53RK = TP53RK (UniProt Q96S44)
TYRO3 = TYRO3 (UniProt Q06418)
ULK1 = ULK1 (UniProt O75385)

Measured: apparent dissociation constant (-log10 M)

COc1ccc(-c2ccc3c(N4CCOC[C@@H]4C)nc(N4CCOC[C@@H]4C)nc3n2)cc1CO [AZD8055]
< 6: all assays above

CCNC(=O)Nc1ccc(-c2nc(N3CCOC[C@@H]3C)c3c(n2)C(C)(C)S(=O)(=O)C3)cc1 [CZ415]
< 6: all assays above
